Measurements published in patent publication US7452865B2, “Antagonistic analogs of GH RH (2003)” (The Administrare's of the Tulane Educational Fund, priority 2004, dated 2008).
Values joined by “and” are separate entries in the source; they are usually repeats but may differ in a detail not shown here. Equal values may be shown once. Square brackets hold non-standard residues; d marks the D form. Peptide text beside a SMILES is read from it. * marks the point of attachment. Phe(4-Cl) = N[C@@H](Cc1ccc(Cl)cc1)C(=O)O; hArg = N=C(N)NCCCC[C@H](N)C(=O)O; Nle = CCCC[C@H](N)C(=O)O; Abu = CC[C@H](N)C(=O)O; PhAc = O=C(Cc1ccccc1)*

System: hGH-RH(1-29)NH2 induced GH release
Experiment: Inhibition of GH release in superfused rat pituitary system
Type: cell-based
Protocol: The analogs were tested in vitro in a test described earlier (S. Vigh and A. V Schally, Peptides 5:241-[…], 1984) with modification (Z. Rekasi and A. V. Schally, P.N.A.S. 90:2146-2149, 1993).
Briefly, the cells are preincubated with peptides for 9 minutes (3 mL) at various concentrations. Immediately after the incubation, 1 nM hGH-RH(1-29)NH2 is administered for 3 minutes (1 mL) 10 minute response). To check the duration of the antagonistic effect of the analogue, 1 nM hGH-RH(1-29)NH2 is applied 30, 60, 90, and 120 minutes later for 3 minutes [30, 60, 90, 120 min responses]. Net integral values of the GH responses are evaluated. GH responses are compared to and expressed as percent of the original GH response induced by 1 nM GH-RH(1-29)NH2 The effect of the new antagonists are compared to that of [Ac-Tyr^1, D-Arg^2]hGH-RH(1-29)NH2, the “Standard antagonist”.
Rat GH levels in aliquots of undiluted and diluted superfusion samples were measured by double-antibody radioimmunoassay using materials supplied by the National Hormone and Pituitary Program, Baltimore, Md. The results of RIA were analyzed with a computer program developed in our institute (V. Csernus and A. V. Schally, in Neuroendocrine Research Methods, Harwood Academic (Greenstein, B. D. ed., London, pp. 71-109, 1991), hereby incorporated by reference.

[1] = antagonist 30 nM, 1 nM hGH-RH(1-29)NH2 at 0 min
[2] = antagonist 30 nM, 1 nM hGH-RH(1-29)NH2 at 30 min
[3] = antagonist 30 nM, 1 nM hGH-RH(1-29)NH2 at 60 min
[4] = antagonist 30 nM, 1 nM hGH-RH(1-29)NH2 at 90 min
[5] = antagonist 30 nM, 1 nM hGH-RH(1-29)NH2 at 120 min

Molecule | GH response (% of control) 0 min [1] | GH response (% of control) 30 min [2] | GH response (% of control) 60 min [3] | GH response (% of control) 90 min [4] | GH response (% of control) 120 min [5] | GH response (% of control) 0 min (antagonist 10 nM, 0 min) | GH response (% of control) 30 min (antagonist 10 nM, 30 min) | GH response (% of control) 60 min (antagonist 10 nM, 60 min) | GH response (% of control) 90 min (antagonist 10 nM, 90 min) | GH response (% of control) 120 min (antagonist 10 nM, 120 min)
[Ipa-Tyr^1, D-Arg^2, Phe(pCl)^6, Har^9, Tyr(Me)^10, Abu^15, Nle^27, D-Arg^28, Har^29, Har^30]hGH-RH(1-30)NH2 [Peptide 55] | 93 % of control | 63 % of control | 96 % of control | 61 % of control | 93 % of control |  |  |  |  | 
[PhAc-Tyr^1, D-Arg^2, Phe(pCl)^6, Arg^9, Abu^15, Nle^27, Har^28, D-Arg^29, hGH-RH(1-29)NH2 [Peptide 15] | 28 % of control | 13 % of control | 11 % of control | 36 % of control | 21 % of control |  |  |  |  | 
[Hca-Tyr^1, D-Arg^2, Phe(pCl)^6, Har^9, Tyr(Me)^10, Abu^15, Nle^27, D-Arg^28, Har^29]hGH-RH(1-29)NH2 [Peptide 45] | 91 % of control and 100 % of control | 100 % of control | 100 % of control | 100 % of control | 99 % of control |  |  |  |  | 
[HOOC(CH2)4CO-Tyr^1, D-Arg^2, Phe(pCl)^6, Arg^9, Abu^15, Nle^27, D-Arg^28, Har^29]hGH-RH(1-29)NH2 [Peptide 3] | 52 % of control | 61 % of control | 56 % of control | 70 % of control | 149 % of control |  |  |  |  | 
[PhAc-Tyr^1, D-Arg^2, Phe(pCl)^5, Har^9, Tyr(Me)^10, Cit^11, Abu^15, Nle^27, D-Arg^28, Har^29]hGH-RH(1-29)NH2 [Peptide 65] | 67 % of control | 80 % of control | 89 % of control | 97 % of control | 79 % of control |  |  |  |  | 
[PhAc-Tyr^1, D-Arg^2, Phe(pCl)^6, Cit^9, Abu^15, Nle^27, Har^28, D-Arg^29]hGH-RH(1-29)NH2 [Peptide 28] | 68 % of control | 7 % of control | 8 % of control | 20 % of control | 34 % of control |  |  |  |  | 
[CH3(CH2)14COD-Phe^0, D-Arg^2, Phe(pCl)^6, Arg^9, Abu^15, Nle^27, D-Arg^28, Har^29]hGH-RH(1-29)NH2 [Peptide 17] | 29 % of control | 51 % of control | 68 % of control | 73 % of control | 61 % of control |  |  |  |  | 
[HOOC(CH2)10CO-Tyr^1, D-Arg^2, Phe(pCl)^6, Arg^9, Abu^15, Nle^27, D-Arg^28, Har^29]hGH-RH(1-29)NH2 [Peptide 9] | 47 % of control | 43 % of control | 66 % of control | 63 % of control | 58 % of control |  |  |  |  | 
[PhAc-Tyr^1, D-Arg^2, Phe(pCl)^6, Har^9, Tyr(Me)^10, Aib^15, Nle^27, D-Arg^28, Har^29]hGH-RH(1-29)NHEt [Peptide 49] | 83 % of control | 76 % of control | 90 % of control | 87 % of control | 120 % of control |  |  |  |  | 
[HOOC(CH2)14CO-Tyr^1, D-Arg^2, Phe(pCl)^6, Arg^9, Abu^15, Nle^27, D-Arg^28, Har^29]hGH-RH(1-29)NH2 [Peptide 13] | 87 % of control | 77 % of control | 76 % of control | 71 % of control | 73 % of control |  |  |  |  | 
[PhAc-Tyr^1, D-Arg^2, Phe(pCl)^6, Amp^9, Abu^15, Nle^27, D-Arg^28, Har^29]hGH-RH(1-29)NH2 [Peptide 68] | 37 % of control | 22 % of control | 33 % of control | 29 % of control | 33 % of control |  |  |  |  | 
[Hca-Tyr^1, D-Arg^2, Phe(pCl)^6, Har^9, Tyr(Me)^10, Abu^15, Nle^27, D-Arg^28, Agm^29]hGH-RH(1-29) [Peptide 51] | 64 % of control and 52 % of control and 87 % of control | 36 % of control and 43 % of control and 35 % of control | 31 % of control and 57 % of control and 46 % of control | 56 % of control and 51 % of control | 58 % of control and 61 % of control |  |  |  |  | 
CCCC[C@H](NC(=O)[C@@H](NC(=O)[C@H](CC(=O)O)NC(=O)[C@H](CCC(N)=O)NC(=O)[C@H](CC(C)C)NC(=O)[C@H](CC(C)C)NC(=O)[C@H](CCCCN)NC(=O)[C@H](CCCNC(=N)N)NC(=O)[C@H](C)NC(=O)[C@H](CO)NC(=O)[C@H](CC(C)C)NC(=O)[C@H](CCC(N)=O)NC(=O)[C@H](CC)NC(=O)[C@H](CC(C)C)NC(=O)[C@@H](NC(=O)[C@H](CCCCN)NC(=O)[C@H](CCCNC(=N)N)NC(=O)[C@H](Cc1ccc(O)cc1)NC(=O)[C@H](CCCNC(=N)N)NC(=O)[C@H](CC(N)=O)NC(=O)[C@@H](NC(=O)[C@H](Cc1ccc(Cl)cc1)NC(=O)[C@@H](NC(=O)[C@H](C)NC(=O)[C@H](CC(=O)O)NC(=O)[C@@H](CCCNC(=N)N)NC(=O)[C@H](Cc1ccc(O)cc1)NC(=O)Cc1ccccc1)[C@@H](C)CC)[C@@H](C)O)C(C)C)[C@@H](C)CC)C(=O)N[C@H](CCCNC(=N)N)C(=O)N[C@@H](CCCCNC(=N)N)C(N)=O [JV-1-36, reference compound] (PhAc-Y[dR]DAI[Phe(4-Cl)]TNRYRKVL[Abu]QLSARKLLQDI[Nle][dR][hArg]-NH2; N-terminus and C-terminus assumed) | 36 % of control | 21 % of control | 25 % of control | 29 % of control | 29 % of control | 80 % of control | 42 % of control | 60 % of control | 64 % of control | 85 % of control
[CH3(CH2)14CO-Phe^0, D-Arg^2, Phe(pCl)^6, Arg^9, Abu^15, Nle^27, D-Arg^28, Har^29]hGH-RH(1-29)NH2 [Peptide 16] | 40 % of control | 62 % of control | 78 % of control | 73 % of control | 61 % of control |  |  |  |  | 
